System: feces samples
Format: cell-based, human

Clostridium butyricum [CB]
change in amount of butyrate: increases significantly

From patent US12282026B2, “Method for screening personalized intestinal environment-improving material and composition therefor” (HEM PHARMA INC., priority 2019, dated 2025)
